According to patent US20110182982A1, “LIPOSOME TREATMENT OF VIRAL INFECTIONS” (University of Oxford, priority 2006, published 2011):

Experiments:
[1] = test system: ncp BVDV; assay: Infectivity of secreted ncp BVDV on naive MDBK cells, immunofluorescence; assay type: cell-based, bovine viral diarrhea virus
Method: Using BVDV viral particles collected from the previous experiment (500 μl of supernatant containing secreted BVDV), the infectivity of secreted NB-DNJ-treated BVDV was determined by incubation with naïve MDBK cells for 3 days followed by immunofluorescent staining to identify BVDV proteins in infected cells. Cells were stained post-infection using an anti-BVDV NS2-NS3 monoclonal antibody, followed by a FITC-labelled secondary antibody. Experiments were performed in duplicate using 6-well plates. The percent viral infectivity was calculated by the number of infected cells, identified by the presence of non-structural BVDV proteins, divided by the total cell count determined by DAPI staining of cell nuclei. Results were also normalized to account for decreased or increased viral titres in each sample (results from BVDV secretion experiments).

[2] = test system: HIV-1 isolate: 93IN101; assay: p24 secretion of HIV-1-infected PBMCs; assay type: cell-based; settings: for % p24 secretion Week 1-rb / % p24 secretion Week 2-rb / % p24 secretion Week 3-rb / % p24 secretion Week 4-rb: treatment removed 2 weeks
Method: (§1) Clearance of HIV-1 primary isolates from infected human cells by NB-DNJ was assessed using phytohemagglutinin (PHA)-activated peripheral blood mononuclear cells (PBMCs) as indicator cells and the determination of p24 antigen production as the end point.
(§2) PBMCs from four normal (uninfected) donors were isolated, pooled, and stimulated with PHA (5 μg/ml) for 48 h followed by PHA plus interleukin-2 (40 U/ml) for 72 h in RPMI 1640 medium containing 10% heat-inactivated fetal bovine serum (FBS), 100 U of penicillin per ml, 100 μg of streptomycin per ml, and 2 mM L-glutamine. All experiments were performed in 96-well microtiter plates. To infect cells, 100 μl of PHA-activated PBMCs (5×10^5/ml) was added to each well, after which an equal volume containing 100 50% tissue culture infective doses (TCID50) of primary isolate stock was added. After an overnight incubation, the cells were washed three times with tissue culture medium, and finally re-suspended in medium containing the appropriate liposome treatment or free NB-DNJ. On day 7, approximately 10-30% of the culture volume containing secreted HIV-1 virions was used to infect naïve PBMCs for a second round of infection and treatment (volume transferred was calculated to be the volume necessary for the untreated control of that isolate to infect naïve cells at a TCID50=100). Rounds of treatment and infection of naïve cells were continued over four weeks, and at every time point cellular supernatant containing secreted virions was isolated and used in capture ELISAs to determine p24 concentration (measure of secretion). Additionally, supernatant isolated at each time point throughout treatment was used to infect naïve PBMCs (TCID50=100) for two weeks with no further treatment, which allowed for the observation of a rebound in viral activity.
(§3) PBMCs infected with 8 primary isolates (listed in Table 3) were incubated in the presence of free NB-DNJ (concentrations ranging 0-1 mM) or liposome-encapsulated NB-DNJ (0-3.75 μM, final lipid concentration of 50 μM).

[3] = test system: HIV-1 isolate: 97USNG30; assay: p24 secretion of HIV-1-infected PBMCs; assay type: cell-based; settings: for % p24 secretion Week 1-rb / % p24 secretion Week 2-rb / % p24 secretion Week 3-rb / % p24 secretion Week 4-rb: treatment removed 2 weeks
Method: as §1, §2, §3

CCCCN1C[C@H](O)[C@@H](O)[C@H](O)[C@H]1CO [NB-DNJ, N-butyl-1,5-dideoxy-1,5-imino-D-glucitol]
effect on BVDV infectivity ([1]; 750 nM added freely to the medium): little to no effect
naive MDBK cells infected by viral progeny ([1]; 750 nM delivered via DCPP liposomes): less than 1%
antiviral effect vs controls ([1]; 750 nM in DCPP liposomes): over 20 fold
naive MDBK cells infected by viral progeny ([1]; free, up to 750 nM): approximately 20%
decrease in secretion ([2]; 1 mM free in medium, first week): 50%
% p24 secretion Week 1 ([2]; NB-DNJ 250 uM): 106%
% p24 secretion Week 2 ([2]; NB-DNJ 250 uM): 81%
% p24 secretion Week 3 ([2]; NB-DNJ 250 uM): 78%
% p24 secretion Week 4 ([2]; NB-DNJ 250 uM): 66%
% p24 secretion Week 1-rb ([2]; NB-DNJ 250 uM): 96%
% p24 secretion Week 2-rb ([2]; NB-DNJ 250 uM): 88%
% p24 secretion Week 3-rb ([2]; NB-DNJ 250 uM): 81%
% p24 secretion Week 4-rb ([2]; NB-DNJ 250 uM): 72%
% p24 secretion Week 1 ([2]; NB-DNJ 500 uM): 75%
% p24 secretion Week 2 ([2]; NB-DNJ 500 uM): 45%
% p24 secretion Week 3 ([2]; NB-DNJ 500 uM): 7%
% p24 secretion Week 4 ([2]; NB-DNJ 500 uM): 2%
% p24 secretion Week 1-rb ([2]; NB-DNJ 500 uM): 88%
% p24 secretion Week 2-rb ([2]; NB-DNJ 500 uM): 37%
% p24 secretion Week 3-rb ([2]; NB-DNJ 500 uM): 11%
% p24 secretion Week 4-rb ([2]; NB-DNJ 500 uM): 0%
% p24 secretion Week 1 ([2]; NB-DNJ 1000 uM): 67%
% p24 secretion Week 2 ([2]; NB-DNJ 1000 uM): 17%
% p24 secretion Week 3 ([2]; NB-DNJ 1000 uM): 3%
% p24 secretion Week 4 ([2]; NB-DNJ 1000 uM): 0%
% p24 secretion Week 1-rb ([2]; NB-DNJ 1000 uM): 51%
% p24 secretion Week 2-rb ([2]; NB-DNJ 1000 uM): 4%
% p24 secretion Week 3-rb ([2]; NB-DNJ 1000 uM): 1%
% p24 secretion Week 4-rb ([2]; NB-DNJ 1000 uM): 0%
% p24 secretion Week 1 ([3]; NB-DNJ 250 uM): 96%
% p24 secretion Week 2 ([3]; NB-DNJ 250 uM): 102%
% p24 secretion Week 3 ([3]; NB-DNJ 250 uM): 100%
% p24 secretion Week 4 ([3]; NB-DNJ 250 uM): 95%
% p24 secretion Week 1-rb ([3]; NB-DNJ 250 uM): 112%
% p24 secretion Week 2-rb ([3]; NB-DNJ 250 uM): 109%
% p24 secretion Week 3-rb ([3]; NB-DNJ 250 uM): 97%
% p24 secretion Week 4-rb ([3]; NB-DNJ 250 uM): 101%
% p24 secretion Week 1 ([3]; NB-DNJ 500 uM): 74%
% p24 secretion Week 2 ([3]; NB-DNJ 500 uM): 45%
% p24 secretion Week 3 ([3]; NB-DNJ 500 uM): 8%
% p24 secretion Week 4 ([3]; NB-DNJ 500 uM): 3%
% p24 secretion Week 1-rb ([3]; NB-DNJ 500 uM): 82%
% p24 secretion Week 2-rb ([3]; NB-DNJ 500 uM): 19%
% p24 secretion Week 3-rb ([3]; NB-DNJ 500 uM): 7%
% p24 secretion Week 4-rb ([3]; NB-DNJ 500 uM): 1%
% p24 secretion Week 1 ([3]; NB-DNJ 1000 uM): 46%
% p24 secretion Week 2 ([3]; NB-DNJ 1000 uM): 9%
% p24 secretion Week 3 ([3]; NB-DNJ 1000 uM): 0%
% p24 secretion Week 4 ([3]; NB-DNJ 1000 uM): 0%
% p24 secretion Week 1-rb ([3]; NB-DNJ 1000 uM): 53%
% p24 secretion Week 2-rb ([3]; NB-DNJ 1000 uM): 3%
